Results taken from US20120265121A1, “PHTHALOCYANINE-BASED ANTIFUNGAL AGENTS” (CASE WESTERN RESERVE UNIVERSITY, priority 2011, published 2012).

Experiments:
[1] = system: C. albicans (strain SC-5134); assay: FUN-1 fluorescence metabolic activity assay (confocal); format: cell-based, Candida albicans; conditions: 1.0 μM Pc 4, 2.0 J/cm^2, vs cells exposed to Pc 4 but not irradiated
Experimental: Pc 4-Photodynamic Treatment Conditions: The phthalocyanine photosensitizer Pc 4 was kindly provided by Dr. Malcolm E. Kenney (Department of Chemistry, Case Western Reserve University, Cleveland, Ohio, USA). Stock solutions (0.5 mM) of Pc 4 were prepared in N′,N′-dimethylformamide (DMF, ThermoFisher, Waltham, Mass., USA) and stored at 4° C. in the dark. C. albicans cultures were incubated with Pc 4 concentrations ranging from 0.1 to 1.0 μM in 1× PBS containing 10% FBS for at least 1 hr at 37° C. in the dark and subsequently irradiated with red light using a light-emitting diode array (EFOS, Mississauga, Ontario, Canada) at a fluence ranging from 1.0 to 2.0 J/cm^2 (1.0 mW/cm^2, λmax ˜670-675 nm) at room temperature. […] The absorbance of the resulting orange solution was measured using a spectrophotometer (Spectronic Genesys 5, Analytical Instrument, Golden Valley, Minn., USA) at 492 nm. […] FUN-1 fluorescence was excited using solid state diode lasers (488 nm) and collected with a 580-650 nm band pass emission filter.

T. rubrum = assay: Clonogenic (CFU) assay after Pc 4-PDT; format: cell-based, Trichophyton rubrum; conditions: 0-2 μM Pc 4, 2.0 J/cm^2
Experimental: Cells were treated with 0-2 μM of Pc 4 for at least 2 hours before being photoirradiated with 2.0 J/cm^2.
Mycologic cure remains the gold-standard in the evaluation of antifungal therapies and leads to lower recurrence rates. […] Immediately after photoirradiation, treated and control samples were diluted and spread 100 μL onto Sabouraud potato agar plates (Becton Dickinson, New Jersey, USA). All plates were incubated at 28° C. and colonies were counted within 5 days.

SMILES: CN(C)CCC[Si](C)(C)O[Si]1(O)n2c3c4ccccc4c2N=C2N=C(N=c4c5ccccc5c(n41)=NC1=NC(=N3)c3ccccc31)c1ccccc12 (stereo not drawn) [Pc 4, HOSiPcOSi(CH3)2(CH2)3N(CH3)2]
- FUN-1 fluorescence [1]: much reduced FUN-1 fluorescence
- survival (CFU) (T. rubrum; terbinafine-resistant strain MRL666): dose-dependent decrease in the survival
- survival (CFU) (T. rubrum; terbinafine-sensitive strain 23013): dose-dependent decrease in the survival
